What was measured:
[1] = test system: AeaABC-TMOF receptor; assay: Transport of AeaTMOF-FITC into E. coli cells expressing AeaABC-TMOF receptor in the presence of inhibitors; assay type: cell-based, Aedes aegypti; conditions: NaAzide 100 μM, NaArsenate 20 mM, AeaTMOF-FITC 0.4 μM, 2 h, 37 °C; for effect on transport of AeaTMOF-FITC into E. coli cells (in words): Valinomycin 7 μM, DNP 27 μM; for inhibition of transport of AeaTMOF-FITC into E. coli cells: 5 × 10^5 cells, M9 medium, versus control cells, mean of 3
Protocol: To find out whether the transport into E. coli cells expressing the TMOF receptor is proton driven or depends on ATP hydrolysis, E. coli cells (5 × 10^5 cell) expressing the TMOF receptor were incubated in M9 medium (100 μL) with valinomysin (7 μM), DNP (27 μM), NaAzide (100 μM) and NaArsenate (20 mM) in the presence of AeaTMOF-FITC (0.4 μM) for 2 h at 37 °C. Control was run without the inhibitors. After incubation, the cells were washed 3× by centrifugation and the fluorescence was read after subtraction the initial background fluorescence of the medium and inhibitors without the AeaTMOF-FITC. The incubations were repeated 3 independent times and the results are expressed as means of 3 determinations ±SEM.

[2] = test system: E. coli SbmA− cells; assay: Fluorescence microscopy of E. coli cells with empty pTAC-MAT-2 plasmid incubated with TMOF-FITC; assay type: cell-based; conditions: overnight incubation, 10^8 cells with empty plasmid, 37 °C, washed 3×
Protocol: (§1) Binding of TMOF-FITC to the AeaABC-TMOF receptor and its transport into the recombinant E. coli cells were observed using Leica DM6B microscope with Leica DFC 7000 T camera and 63× magnification using oil immersion lens. Mid-log E. coli cells (10^8 cells) expressing AeaABC-TMOF-receptor were incubated with TMOF-FITC (see Section 2.6) in M9 medium (100 μL) overnight at 37 °C. After incubation, the cells were washed 3× in PBS pH 7.2 (as in Section 2.6) and aliquots (10 μL) were spread on a glass slide then covered with a cover slip and a drop of oil was applied to the top of the cover slip, and the cells observed by fluorescence microscopy. Cells without a TMOF-receptor containing an empty plasmid were used as control.

[3] = test system: AeaABC-TMOF receptor; assay: Binding of TMOF-FITC to AeaABC-TMOF receptor expressed in E. coli SbmA− cells; parameters: species or system Aedes aegypti; conditions: for Kd: TMOF-FITC 0–0.4 μM, 8 × 10^8 E. coli SbmA− cells expressing receptor, M9 medium pH 7.2, 37 °C, fluorescence, corrected for nonspecific binding (13%), nonlinear regression, n = 5, ± SEM; for Bmax: as for KD, ± SEM; for affinity constant Kassoc: calculated from the binding kinetics
Protocol: Mid-log phase bacteria harboring TMOF-receptor were harvested, diluted and 0.5 μL (8 × 10^8 cells) were incubated in M9 medium (100 μL) pH 7.2 at 37 °C for 2 h in a shaker incubator in Eppendorf tubes with different concentrations of TMOF-FITC (0–0.4 μM) (specific activity = 25,396 fluorescence units/pmol) in the presence of TMOF (1 μmol) to reduce nonspecific binding of TMOF-FITC to the bacterial surface. After incubation, the cells were centrifuged at 14,000 rpm for 5 min at 4 °C, resuspended in PBS pH 7.2 (100 μL), vortexed, centrifuged, and the washing was repeated three times. After the last wash, the cells OD600nm and fluorescence were read in GloMax multidetector system using a blue filter (excitation at 490 nm and emission at 510–570 nm). The amount of TMOF-FITC that bound the TMOF-receptor was determined from a linear calibration curve after plotting different concentrations of TMOF-FITC against fluorescence units. […] After HPLC purification, the TFA ions were exchanged with phosphate ions. […] The results are expressed as pmol/OD600 so the binding to the receptor is per equal number of E. coli cells. The kinetics of TMOF-FITC binding to its receptor was followed at different concentrations of TMOF-FITC using 5 repetitions per concentration, the data was then fitted by nonlinear regression using GraphPad Prism and the KD, Bmax and the affinity constant Kassoc determined. The binding experiments were repeated 3 independent times.
Statistical analyses were determined using GraphPad Prism using two tailed Student’s t test and nonlinear regression. Results were considered significant when p < 0.05. […] Each experimental point is a mean of 3–5 determinations ± SEM.

[4] = test system: E. coli SbmA+ cells; assay: Binding of TMOF-FITC to E. coli SbmA+ cells with empty pTAC-MAT2 plasmid; conditions: 8 × 10^8 cells, 2 h, 37 °C, M9 medium, mean of three
Protocol: (§2) Mid-log phase bacteria harboring TMOF-receptor were harvested, diluted and 0.5 μL (8 × 10^8 cells) were incubated in M9 medium (100 μL) pH 7.2 at 37 °C for 2 h in a shaker incubator in Eppendorf tubes with different concentrations of TMOF-FITC (0–0.4 μM) (specific activity = 25,396 fluorescence units/pmol) in the presence of TMOF (1 μmol) to reduce nonspecific binding of TMOF-FITC to the bacterial surface. After incubation, the cells were centrifuged at 14,000 rpm for 5 min at 4 °C, resuspended in PBS pH 7.2 (100 μL), vortexed, centrifuged, and the washing was repeated three times. After the last wash, the cells OD600nm and fluorescence were read in GloMax multidetector system using a blue filter (excitation at 490 nm and emission at 510–570 nm). The amount of TMOF-FITC that bound the TMOF-receptor was determined from a linear calibration curve after plotting different concentrations of TMOF-FITC against fluorescence units. […] The results are expressed as pmol/OD600 so the binding to the receptor is per equal number of E. coli cells. The kinetics of TMOF-FITC binding to its receptor was followed at different concentrations of TMOF-FITC using 5 repetitions per concentration, the data was then fitted by nonlinear regression using GraphPad Prism and the KD, Bmax and the affinity constant Kassoc determined. […]

[5] = test system: E. coli SbmA− cells; assay: Nonspecific binding of TMOF-FITC to E. coli SbmA− cells with empty pTAC-MAT-2 plasmid
Protocol: as §2

[6] = test system: AeaABC-TMOF receptor; assay: Fluorescence microscopy of TMOF-FITC import into E. coli cells expressing AeaABC-TMOF receptor; assay type: cell-based, Aedes aegypti; conditions: for fluorescence of cells / import (in words): overnight incubation, 10^8 cells expressing receptor, 37 °C, washed 3×
Protocol: as §1, with “Mid-log E. coli cells (10^8 cells) expressing AeaABC-TMOF-receptor were incubated with TMOF-FITC (see Section 2.6) in M9 medium (100 μL) overnight at 37 °C.” left out

[7] = test system: TMOF gut receptor; conditions: cited from earlier work
Description: To characterize the TMOF gut receptor, complementary decapeptides were used on Ae. aegypti gut membranes showing that the binding to the gut membrane is pH and temperature dependent. […] The specific TMOF receptor binding sites on female mosquito gut increased after the blood meal and they were visualized by immunochemistry staining. […] Our earlier studies also characterized a low affinity receptor [25] whereas in this study the affinity chromatography and SDS PAGE procedure that we used aimed to purify a high affinity TMOF receptor. It is possible that a second low affi ...

O=[N+]([O-])c1ccc(O)c([N+](=O)[O-])c1 [DNP, 2,4-dinirophenol]
effect on transport of AeaTMOF-FITC into E. coli cells (in words) [1]: did not stop the transport

O=[As]([O-])([O-])O.[Na+].[Na+] [NaArsenate, sodium arsenate]
inhibition of transport of AeaTMOF-FITC into E. coli cells [1]: 58%
effect on transport of AeaTMOF-FITC into E. coli cells (in words) [1]: inhibited

[N-]=[N+]=[N-].[Na+] [NaAzide, sodium azide]
inhibition of transport of AeaTMOF-FITC into E. coli cells [1]: 43%
effect on transport of AeaTMOF-FITC into E. coli cells (in words) [1]: inhibited

CC(C)[C@@H]1NC(=O)[C@H](C)OC(=O)[C@@H](C(C)C)NC(=O)[C@@H](C(C)C)OC(=O)[C@H](C(C)C)NC(=O)[C@H](C)OC(=O)[C@@H](C(C)C)NC(=O)[C@@H](C(C)C)OC(=O)[C@H](C(C)C)NC(=O)[C@H](C)OC(=O)[C@@H](C(C)C)NC(=O)[C@@H](C(C)C)OC1=O [Valinomycin]
effect on transport of AeaTMOF-FITC into E. coli cells (in words) [1]: did not stop the transport

H-YDPAPPPPPPK(FITC)K-OH [TMOF-FITC]
fluorescence of cells (in words) [2]: did not fluoresce
fluorescence of cells (in words) ([2]; listed as AeaTMOF-FITC): barely fluoresce
fold more TMOF-FITC bound by receptor-expressing cells than by E. coli SbmA+ ([3]; 2 h, 37 °C, M9 medium, versus E. coli SbmA+ with empty plasmid, p = 0.0034): 3.7 fold
fold more TMOF-FITC bound by receptor-expressing cells than by E. coli SbmA− ([3]; 2 h, 37 °C, M9 medium, versus E. coli SbmA− with empty plasmid, p = 0.0018): 7.8 fold
Kd ([3]; 2 h): 114 ± 18 nM
Bmax ([3]; per equal number of E. coli cells, n = 5): 28.7 ± 1.8 pmol/OD600
affinity constant Kassoc [3]: 8.8e+06 M⁻¹
AeaTMOF-FITC bound [4]: 8.4 pmol
nonspecific binding ([5]; E. coli SbmA− cells with empty pTAC-MAT-2 plasmid, not expressing the receptor (bacterial cell wall)): 13%
AeaTMOF-FITC bound ([5]; E. coli SbmA− cells, 8 × 10^8 cells, 2 h, 37 °C, M9 medium, mean of three): 4 pmol
fluorescence of cells / import (in words) [6]: imports it into the bacterial cells
fluorescence of cells / import (in words) ([6]; listed as AeaTMOF-FITC): highly fluoresce
fluorescence of cells (in words) ([6]; short time incubation (2 h), cells expressing receptor): did not fluoresce

YDPAPPPPPP [TMOF]
Kd ([3]; 2 h): 114 ± 18 nM
Bmax [3]: 28.7 ± 1.8 pmol
affinity constant Kassoc [3]: 8.8e+06 M⁻¹
Bmax ([7]; gut membrane preparations): 0.1 pmol/gut
Kassoc ([7]; gut membrane preparations): 2.2e+06 M⁻¹
Kd ([7]; low affinity binding site, gut membranes, complementary decapeptides, read-out: Kd2): 4430 nM
